Reference: publication PMC11478322, “1,2,4-Oxadiazole Derivatives: Physicochemical Properties, Antileishmanial Potential, Docking and Molecular Dynamic Simulations of Leishmania infantum Target Proteins” (Molecules, 2024)
Like-named read-outs stand apart in the source and are kept apart here.

Tests used:
[1] = Cytotoxicity assay (MTT) in macrophages; type: cell-based; details: mouse, 48 h of treatment, MTT, tested 6.25–200 µM
Protocol: (§1) The cytotoxic potential of Ox1–Ox7 was first evaluated in fibroblasts (L929) and macrophages (J774.G8). For this, 5 × 10^5 cells/mL were seeded in 96-well microplates containing 100 μL of DMEM or RPMI-1640 medium supplemented with 10% fetal bovine serum (FBS) and cultivated for 24 h at 37 °C, under 5% CO2 atmosphere. […] Untreated cells were considered as negative control. The cell viability was measured by spectrometry after 48 h of cultivation using MTT (Sigma-Aldrich, St. Louis, MO, USA) methodology described by Mosmann. The optical densities (OD) of the samples were read in a Glomax Multiplate reader (Promega, Madison, WI, USA) at 540 nm. Each assay was performed in triplicate in three independent experiments. […] The selectivity index (SI) for each compound was calculated as the ratio between the CC50 values obtained for J774.G8 macrophages and fibroblast and the IC50 values for promastigotes. The compound with a higher value of SI was selected for cytotoxicity evaluation in macrophages obtained from BALB/c mice peritoneal exudate (PeM), following the methodology described above.

[2] = Cytotoxicity assay (MTT) in fibroblasts; type: cell-based; details: mouse, 48 h of treatment, MTT, tested 6.25–200 µM
Protocol: as §1

[3] = test system: L. infantum promastigotes; assay: Promastigote viability (CellTiter-Glo ATP); type: cell-based, L. infantum (BH46 strain); details: for IC50: Leishmania infantum, read-out: IC50 Pro; for SI Pro/L929: ratio CC50 (L929)/IC50 (promastigotes); for SI (promastigotes vs fibroblasts and J774.G8 macrophages): stated as bound; for SI Pro/J774.G8: ratio CC50 (J774.G8)/IC50 (promastigotes)
Protocol: Promastigote forms of L. infantum (BH46 strain) were cultivated at 27 °C in Schneider’s medium, supplemented with 10% (v/v) heat-inactivated fetal bovine serum (FBS, Gibco, Waltham, MA, USA), 100 U/mL penicillin, and 0.01 mg/mL streptomycin. Parasites in the log phase were used in the test of drugs against promastigotes, whereas those obtained in the stationary phase were used to infect peritoneal macrophages. […] The viability of promastigotes was assessed through ATP production using the CellTiter-Glo® Luminescent Cell Viability assay (Promega, Madison, WI, USA), in accordance with the manufacturer’s instructions.

[4] = test system: L. infantum amastigotes in PeMs; design: method as in PMID 18660990, PMID 23070424; details: concentration used as positive control; read-out: IC50 of reference drugs; cited from earlier work
[5] = test system: L. infantum amastigotes in PeMs; assay: microbe, parasite or virus in culture; details: for number of intracellular amastigotes / parasites in infected PeMs: glucantime 346.19 µM, Amphotericin B 10.55 µM
Protocol: After initial cultivation, non-adherent cells were removed by washing with fresh RPMI medium. Subsequently, PeMs were infected with stationary promastigote forms of L. infantum at 1:20 PeM/promastigotes ratio. […] After incubation time, the samples were washed in PBS, fixed with methanol, and stained with Giemsa. The percentage of infected macrophages was determined by counting 150 randomly chosen cells in duplicate, and the survival index (SuI) was calculated by multiplying the percentage of infected cells by the mean of amastigotes in infected cells. […] The tests were carried out in duplicate in three independent experiments.

[6] = test system: L. infantum promastigotes; assay: Scanning electron microscopy of promastigotes (rounded cells count); type: cell-based; details: 48 h, control 5%
Protocol: To identify alterations in the morphology of promastigotes and amastigotes, scanning (SEM) and transmission (TEM) electron microscopy assays were performed. For SEM, L. infantum promastigotes were treated with once or twice the IC50 concentration of Ox1 for 48 h. Subsequently, the parasites were harvested by centrifugation, washed with 100 mM PBS, pH 7.2, fixed at room temperature, for 1 h in 2.5% glutaraldehyde solution diluted in 0.1 M cacodylate buffer, pH 7.2. Cells were adhered to coverslips pre-coated with poly-L-lysine, post-fixed for 1 h with a solution containing 1% osmium tetroxide, 0.8% potassium ferricyanide, and 5 mM calcium chloride diluted in 0.1 M cacodylate buffer, pH 7.2, in light-protected environment. Then, the cells were dehydrated in graded ethanol series (15–100%) for 10 min at room temperature. Samples were critical-point dried in a LEICA EM CPD300 apparatus (Leica Microsystems, Wetzlar, Hessen, DE, Germany) and then coated with 20 nm gold and observed in a JEOL T-200 scanning electron microscope (JEOL Ltd., Tokyo, Japan). For MET, promastigotes and infected PeMs were treated or not with once or twice IC50 concentration of Ox1, fixed and post-fixed, as described above. For infected–adhered peritoneal macrophages, after the post-fixation, the cells were scraped off the culture dishes with a rubber policeman. […]

[7] = Cytotoxicity assay (MTT) in peritoneal macrophages; type: cell-based, BALB/c mice; details: BALB/c, mouse, peritoneal macrophages (PeM); peritoneal macrophages, estimated; read-out: CC50 for PeMs
Protocol: as §1

[8] = test system: peritoneal macrophages from BALB/c mice (PeM); assay: Cytotoxicity assay (MTT) in peritoneal macrophages; type: cell-based
Protocol: as §1

macrophages (J774.G8) = assay: Cytotoxicity assay (MTT) in macrophages; type: cell-based; details: 200 µM, 48 h
Protocol: as §1

fibroblasts (L929) = assay: Cytotoxicity assay (MTT) in fibroblasts; type: cell-based; details: 200 µM, 48 h
Protocol: as §1

[9] = test system: L. infantum promastigotes; assay: Mitochondrial membrane potential, Rhodamine 123 flow cytometry; type: cell-based
Protocol: Afterward, the cells were centrifuged and stained with Rhodamine 123 (10 µg/mL, molecular probes, Invitrogen™, Waltham, MA, USA) in PBS for 15 min at 27 °C, in the dark. […] The changes in the fluorescence intensity for fluorochrome were determined by the variation index calculated as follows: (MT − MC)/MC where MT is the mean fluorescence intensity of treated cells and MC is the mean of fluorescence of control cells without treatment. A total of 20,000 events were acquired, and the data were analyzed with FLOWJO software version 10.2.

[10] = promastigotes, 48 h of treatment
[11] = 24 h, Ox1 8.24, 16.49, 32.98 µM

For C#CCN(c1nc(-c2ccccc2)no1)C1CCCCC1 [Ox5, N-Cyclohexyl-3-phenyl-N-(prop-2-yn-1-yl)-1,2,4-oxadiazol-5-amine], the CC50 at 48 h ([1]; J774.G8 macrophages) was 160 ± 6.5 µM, the CC50 at 48 h ([2]; L929 fibroblasts) was > 200 µM and the melting point was 112 to 114 °C. The IC50 [3, 10] was 84.7 ± 3.6 µM, the “SI Pro/L929” value [3] was 4.4 and the “SI (promastigotes vs fibroblasts and J774.G8 macrophages)” value [3] was “lower than 5.0”.

In the case of “antimoniate of meglumine [glucantime, reference compound]”, the IC50 [4] is given as 346 µM and the “number of intracellular amastigotes / parasites in infected PeMs” value [5, 11] is given as “reduced the number of intracellular amastigotes”.

Compound c1ccc(-c2noc(NC3CCCCC3)n2)cc1 [Ox, N-Cyclohexyl-3-(phenyl)-1,2,4-oxadiazol-5-amine] has a melting point of 125 to 127 °C.

For C#CCN(c1nc(-c2cccc([N+](=O)[O-])c2)no1)C1CCCCC1 [Ox7, N-Cyclohexyl-3-(3-nitrophenyl)-N-(prop-2-yn-1-yl)-1,2,4-oxadiazol-5-amine], the CC50 at 48 h ([1]; J774.G8 macrophages) was 197 ± 6 µM, the CC50 at 48 h ([2]; L929 fibroblasts) was > 200 µM and the melting point was 94 to 96 °C. The IC50 [3, 10] was 98.2 ± 1.4 µM and the “SI Pro/J774.G8” value [3] was 2.0.

For C#CCN(c1nc(-c2ccc([N+](=O)[O-])cc2)no1)C1CCCCC1 [Ox6, N-Cyclohexyl-3-(4-nitrophenyl)-N-(prop-2-yn-1-yl)-1,2,4-oxadiazol-5-amine], the CC50 at 48 h ([1]; J774.G8 macrophages) was > 200 µM, the CC50 at 48 h ([2]; L929 fibroblasts) was > 200 µM and the melting point was 108 to 110 °C. The IC50 [3, 10] was 92.2 ± 1.9 µM, the “SI Pro/J774.G8” value [3] was 2.5 and the “SI Pro/L929” value [3] was 3.7. For the same compound, the “SI (promastigotes vs fibroblasts and J774.G8 macrophages)” value [3] was “lower than 5.0”.

For C[C@@H]1[C@H](O)[C@@H](C)/C=C/C=C/C=C/C=C/C=C/C=C/C=C/[C@H](O[C@@H]2O[C@H](C)[C@@H](O)[C@H](N)[C@@H]2O)C[C@@H]2O[C@](O)(C[C@@H](O)C[C@@H](O)[C@H](O)CC[C@@H](O)C[C@@H](O)CC(=O)O[C@H]1C)C[C@H](O)[C@H]2C(=O)O [Amphotericin B, reference compound], the IC50 [4] is listed as 10.6 µM and the “number of intracellular amastigotes / parasites in infected PeMs” value [5, 11] is listed as “reduced the number of intracellular amastigotes”.

For O=[N+]([O-])c1ccc(-c2noc(NC3CCCCC3)n2)cc1 [Ox3, N-Cyclohexyl-3-(4-nitrophenyl)-1,2,4-oxadiazol-5-amine], the CC50 at 48 h ([1]; J774.G8 macrophages) was > 200 µM, the CC50 at 48 h ([2]; L929 fibroblasts) was > 200 µM and the melting point was 201 to 203 °C. For the same compound, the IC50 [3, 10] was 336 ± 12.1 µM and the “SI Pro/L929” value [3] was 1.1.

In the case of Cc1ccc(-c2noc(NC3CCCCC3)n2)cc1 [Ox4, N-Cyclohexyl-3-(4-methylphenyl)-1,2,4-oxadiazol-5-amine], the CC50 at 48 h ([1]; read-out: CC50 J774.G8) is reported as > 200 µM, the CC50 at 48 h ([2]; read-out: CC50 L929) is reported as > 200 µM and the IC50 ([3]; 48 h) is reported as 174 ± 12.3 µM. The “SI Pro/L929” value [3] was 1.7.

With COc1ccc(-c2noc(NC3CCCCC3)n2)cc1 [Ox1, N-Cyclohexyl-3-(4-methoxyphenyl)-1,2,4-oxadiazol-5-amine] the “percentage of rounding cells” value ([6]; IC50 (32.98 µM)) was 7%, the “percentage of rounding cells” value ([6]; twice the IC50 (65.96 µM)) was 30% and the CC50 at 48 h [7] was 617 µM. The “reduction of viability of PeMs” value ([8]; 400 µM, compared to control cells) was 13%, the “viability of macrophages (PeM)” value ([8]; 6.25 to 200 µM) was “significantly increased” and the “reduction of cell viability, macrophages J774.G8” value (macrophages (J774.G8)) was 26%. The CC50 at 48 h ([1]; J774.G8 macrophages) was > 200 µM, the CC50 at 48 h ([2]; L929 fibroblasts) was > 200 µM and the “reduction of cell viability, fibroblasts” value (fibroblasts (L929)) was 20%. For the same compound, the melting point was 109 to 110 °C, the “reduction in promastigote viability” value ([3]; 25 µM, 48 h) was 32% and the “reduction of growth of parasites” value ([3]; 50 µM, 24 h) was 66%. For the same compound, the promastigote viability inhibition ([3]; 200 µM, regardless of the cultivation time (24 and 48 h)) was “exceeded 90%”, the “SI against promastigotes compared to peritoneal macrophages” value ([3]; CC50 PeM/IC50 promastigotes) was 18.7 and the IC50 [3, 10] was 32.9 ± 2.2 µM. The “increase in activity compared to compound Ox3” value ([3]; promastigote IC50 comparison) was “about 10 times”, the “SI Pro/J774.G8” value [3] was 8.9 and the “SI Pro/L929” value [3] was 9.7. The “variation index of membrane potential (Rhodamine 123)” value ([9]; 2× IC50 of Ox1, 48 h) was −0.32, the “variation index of membrane potential (Rhodamine 123)” value ([9]; IC50 of Ox1, 48 h) was “+0.28” and the “membrane potential (Rhodamine 123 fluorescence) vs control” value ([9]; ½ IC50 of Ox1, 48 h) was “No difference”. For the same compound, the “survival index (SuI) of amastigotes inside the macrophages” value [5, 11] was “significantly decreased”, the “number of intracellular amastigotes / parasites in infected PeMs” value [5, 11] was “significantly decreased” and the SI against amastigotes ([5]; CC50 for PeM/IC50 of amastigote forms) was 61.7. The IC50 ([5]; Leishmania infantum, Peritoneal macrophage, 24 h, read-out: IC50 for amastigote forms in PeMs) was 10 µM.

In the case of O=[N+]([O-])c1cccc(-c2noc(NC3CCCCC3)n2)c1 [Ox2, N-Cyclohexyl-3-(3-nitrophenyl)-1,2,4-oxadiazol-5-amine], the CC50 at 48 h ([1]; J774.G8 macrophages) is reported as > 200 µM, the CC50 at 48 h ([2]; L929 fibroblasts) is reported as > 200 µM and the melting point is reported as 131 to 133 °C. The IC50 [3, 10] was 220 ± 3.6 µM, the “SI Pro/L929” value [3] was 1.7 and the “SI (promastigotes vs fibroblasts and J774.G8 macrophages)” value [3] was “lower than 5.0”.
